Laboratory results reported in paper PMC9841298 (Clinical and Translational Science, 2022).
Read-outs that look alike come from different tables or passages of the source.

Columns and labels:
[1] = PKPlus two-compartmental PK model fitted to reference product plasma data; parameters: species or system human
[2] = ref website drug bank, cited from earlier work
[3] = fasting, two-compartmental model, from reference product 2.0 mg data of ref 13

distribution coefficient from the peripheral to central compartment (k21) [1, 3]: 0.086 h⁻¹
distribution constant from the central to the peripheral compartment (k12) [1, 3]: 0.252 h⁻¹
Vd ([1]; human, plasma, oral, 2 mg): 43.2 L
clearance ([1]; human, plasma, oral, 2 mg): 343 mL/min
Compound: O=C(O)C[C@H](O)C[C@H](O)/C=C/c1c(C2CC2)nc2ccccc2c1-c1ccc(F)cc1 [pitavastatin calcium]
Log P ([2]; model input): 3.75
pKa ([2]; model input): 4.86
Solubility ([2]; pH 4.68): 65.2 µg/mL
Solubility ([2]; water): 3.94 µg/mL
